Series [1] in a line: Vitamin C osmosis comparison using autoradiography (Test Example 3). The class given is in vivo, hairless rat. The text has this:
Vitamin C osmosis comparison using autoradiography.
These figures (photographs) display a cross-section of rat skin tissue, wherein black dots in the epidermis and dermis indicate vitamin C.

Series [2] in a line: Vitamin C osmosis into the human skin (Test Example 1), iontophoretic introduction, HPLC of epidermis and dermis. The settings on record: human thigh skin, five hours after five minutes iontophoretic introduction.
Protocol: <Experiment Procedure> • (1) Vitamin C was iontophoretically introduced for five minutes. • (2) After five hours, 5 mm of the skin was punched, separated into epidermis and dermis, and freeze dried. • (3) The Vitamin C concentration in the epidermis and dermis was determined by HPLC. • 1) The freeze dry samples were dissolved in 500 □1 of a moving layer solvent. • 2) The solution was ultrasonically treated for 10 minutes, • 3) filtered through a 0.2 mm filter, and • 4) subjected to HPLC measurement.
Moving layer: A 0.08 M CH3COOH—CH3COONa buffer solution (pH 5.0) containing 2.8 mM Mn-hexyl amine, 0.1 mM disodium edetate, and 2% methanol. • Measuring amount: 20 □1 • Flow rate: 0.8 ml/min. • Wavelength: 254 nm • Column: ODS column oven: 40° C.
For series [3] the following is noted: rat, in vivo.
Protocol: The present inventor introduced a 0.1% diluted solution of C-ascorbic acid (hereinafter referred to as Vitamin C) into the back skin of a rat by simple external application and iontophoresis to compare osmosis of vitamin C using a scintillation counter and autoradiography.
A 0.1% vitamin C solution was applied to the back skin of a hairless rat for 20 seconds by iontophoresis or for 10 minutes by simple external application. Tissue samples were collected at prescribed intervals (Samples of iontophoresis application: control, 0.5 h, 1 h, 2 h, 3 h, and 6 h; samples of simple external application: control, 1 h, 2 h, 3 h, and 6 h). Each collected sample was cut into two pieces, one of which was separated into epidermis and dermis for use as a scintillation counter sample. A lyophilized section was prepared from the other piece of the sample and developed for autoradiography analysis. The vitamin C concentration in each tissue was determined using IR analysis.

Like-named read-outs stand apart in the source and are kept apart here.

On to `O=C1O[C@H]([C@@H](O)CO)C(O)=C1O` [Vitamin C, C-ascorbic acid], for which the “penetration from the epidermis into the dermis (autoradiography)” value in series [1] (iontophoresis application, rat back skin (FIG. 7)) was “started to penetrate at 0.5 hour and more abundantly after one hour”. Besides, the “penetration from the epidermis into the dermis (autoradiography)” value in series [1] (simple external application, rat back skin (FIG. 6)) is reported as “progressively penetrated from the epidermis into the dermis over time”. Further, in series [2], the “Dermis (ppm), Vitamin C concentration” value was 0.05 ppm and the “Epidermis (ppm), Vitamin C concentration” value is 0.02 ppm. In series [3] (hairless), the “osmosis by iontophoresis application relative to simple external application” value was “about 30 times” and the “time at which concentration reached maximum” value turned out to be 0.5 h. Also, the “time at which concentration reached maximum” value in series [3] is “one”.

For the origin of these results see patent US20050191252A1, “Skin beautification cosmetic system using iontophoresis device, ultrasonic facial stimulator, and cosmetic additive” (priority 2004, published 2005).
